The term EC50 denotes the concentration needed to bring the measured effect to its halfway point.

Common to all, as to assay type: cell-based
Test [1] deals with T1, α1β2γ2 GABAA receptor (α1 subunit) (Rattus norvegicus, UniProt P18508+P62813+P63138).
T1 construct: gene Gabra1; rat α1/β2/γ2L subunits expressed in HEK-293 cells; with GABAA receptor β2 (Gabrb2) and γ2L (Gabrg2) subunits
In words: whole-cell patch clamp dose-response, partial agonist. (In general: Patch clamp records ionic current or voltage across a cell membrane.)

The target in test [2] is T2, α1β2γ2 GABAA receptor (α1 subunit), ALA mutant (Rattus norvegicus, UniProt P18508+P62813+P63138, P62813:F91A).
T2 construct: gene Gabra1; rat α1/β2/γ2L subunits expressed in HEK-293 cells; with GABAA receptor β2 (Gabrb2) and γ2L (Gabrg2) subunits
T2 sequence (P62813 28-455 F91A): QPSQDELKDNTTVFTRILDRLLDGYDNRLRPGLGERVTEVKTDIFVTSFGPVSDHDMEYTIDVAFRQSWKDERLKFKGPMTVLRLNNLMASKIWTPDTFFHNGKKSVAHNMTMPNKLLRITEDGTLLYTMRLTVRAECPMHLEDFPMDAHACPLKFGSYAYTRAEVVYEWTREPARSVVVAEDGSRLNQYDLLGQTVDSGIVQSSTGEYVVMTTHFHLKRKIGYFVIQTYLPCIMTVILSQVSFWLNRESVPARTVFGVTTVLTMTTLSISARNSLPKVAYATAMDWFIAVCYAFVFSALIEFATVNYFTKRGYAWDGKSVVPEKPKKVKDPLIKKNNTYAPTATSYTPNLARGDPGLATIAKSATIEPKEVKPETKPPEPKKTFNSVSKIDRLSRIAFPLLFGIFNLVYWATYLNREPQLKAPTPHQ
T2 sequence (P63138 26-474): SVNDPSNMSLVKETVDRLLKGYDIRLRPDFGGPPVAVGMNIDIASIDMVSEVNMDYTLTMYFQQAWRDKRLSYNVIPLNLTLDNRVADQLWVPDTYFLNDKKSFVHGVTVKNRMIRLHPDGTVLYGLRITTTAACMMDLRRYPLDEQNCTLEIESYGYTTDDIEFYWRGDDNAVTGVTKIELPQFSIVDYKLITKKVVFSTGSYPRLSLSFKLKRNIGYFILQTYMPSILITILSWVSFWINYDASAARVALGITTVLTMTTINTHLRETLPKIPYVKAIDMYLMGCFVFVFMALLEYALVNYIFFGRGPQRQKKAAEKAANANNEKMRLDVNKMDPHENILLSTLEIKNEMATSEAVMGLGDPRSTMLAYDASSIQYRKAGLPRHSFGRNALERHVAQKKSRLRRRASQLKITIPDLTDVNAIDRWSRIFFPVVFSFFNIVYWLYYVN
T2 sequence (P18508 39-466): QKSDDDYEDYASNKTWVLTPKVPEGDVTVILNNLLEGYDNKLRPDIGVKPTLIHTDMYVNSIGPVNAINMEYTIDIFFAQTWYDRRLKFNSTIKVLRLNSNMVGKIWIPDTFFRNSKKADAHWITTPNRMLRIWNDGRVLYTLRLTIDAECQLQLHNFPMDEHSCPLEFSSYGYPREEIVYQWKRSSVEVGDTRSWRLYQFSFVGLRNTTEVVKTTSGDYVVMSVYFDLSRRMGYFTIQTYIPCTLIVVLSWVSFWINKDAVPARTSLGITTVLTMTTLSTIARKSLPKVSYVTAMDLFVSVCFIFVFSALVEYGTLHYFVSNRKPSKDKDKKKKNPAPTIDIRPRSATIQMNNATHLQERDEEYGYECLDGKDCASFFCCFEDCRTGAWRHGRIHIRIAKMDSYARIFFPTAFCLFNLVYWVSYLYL
The test can be described thus: whole-cell patch clamp, currents evoked by […] GABA. Details: dose or concentration left out as unconfirmed.

In test [3] the target is T3, α1β2γ2 GABAA receptor (α1 subunit), LEU mutant (Rattus norvegicus, UniProt P18508+P62813+P63138, P62813:F91L).
T3 construct: gene Gabra1; rat α1/β2/γ2L subunits expressed in HEK-293 cells; with GABAA receptor β2 (Gabrb2) and γ2L (Gabrg2) subunits
T3 sequence (P62813 28-455 F91L): as the sequence (P62813 28-455 F91A) above, with A64L counted along it
T3 sequence (P63138 26-474): as the sequence (P63138 26-474) above
T3 sequence (P18508 39-466): as the sequence (P18508 39-466) above
In words: whole-cell patch clamp, currents evoked by […] GABA.

Each structure is given as a SMILES string.

T1 sequence (P62813 28-455): as the sequence (P62813 28-455 F91A) above, with A64F counted along it
T1 sequence (P63138 26-474): as the sequence (P63138 26-474) above
T1 sequence (P18508 39-466): as the sequence (P18508 39-466) above

For the molecule `O=S(=O)(O)C1CCNCC1` [P4S, piperidine-4-sulfonic acid], in test [1], the EC50 stood at 46 µM. `NCCCC(=O)O` [GABA]: the “whole-cell patch clamp, currents evoked by GABA” value in test [2] was “Typical traces of current responses to saturating [GABA] application (black traces)”. Further, the “whole-cell patch clamp, currents evoked by 100 mM GABA” value in test [3] was “Typical traces of current responses to saturating [GABA] application (black traces)”.
